Measured values taken from ChEMBL document CHEMBL3399937, “(18)F-AmBF3-MJ9: a novel radiofluorinated bombesin derivative for prostate cancer imaging” (Bioorg Med Chem, 2015).

What was measured:
Conditions in all cases: in vivo
Spleen [1] = assay: Biodistribution in spleen of NSG mouse xenografted with human PC-3 tumor at 0.37 to 0.74 MBq, iv after 0.5 hrs by gamma counting analysis; type: ADME, organism-based
Tumour [2] = assay: Biodistribution in tumor of NSG mouse xenografted with human PC-3 tumor at 0.37 to 0.74 MBq, iv after 1 hr by gamma counting analysis in presence of BAY86-7548; type: ADME, organism-based, Neoplasm
Muscle tissue [3] = assay: Biodistribution in muscle of NSG mouse xenografted with human PC-3 tumor at 0.37 to 0.74 MBq, iv after 2 hrs by gamma counting analysis; type: ADME, organism-based
Mus musculus [4] = assay: Biodistribution in adrenal gland of NSG mouse xenografted with human PC-3 tumor at 0.37 to 0.74 MBq, iv after 2 hrs by gamma counting analysis; type: ADME, organism-based
Heart = assay: Biodistribution in heart of NSG mouse xenografted with human PC-3 tumor at 0.37 to 0.74 MBq, iv after 1 hr by gamma counting analysis in presence of BAY86-7548; type: ADME, organism-based
Brain = assay: Biodistribution in brain of NSG mouse xenografted with human PC-3 tumor at 0.37 to 0.74 MBq, iv after 1 hr by gamma counting analysis in presence of BAY86-7548; type: ADME, organism-based
Muscle tissue [5] = assay: Biodistribution in muscle of NSG mouse xenografted with human PC-3 tumor at 0.37 to 0.74 MBq, iv after 1 hr by gamma counting analysis in presence of BAY86-7548; type: ADME, organism-based
Spleen [6] = assay: Biodistribution in spleen of NSG mouse xenografted with human PC-3 tumor at 0.37 to 0.74 MBq, iv after 1 hr by gamma counting analysis in presence of BAY86-7548; type: ADME, organism-based
Blood [7] = assay: Biodistribution in blood of NSG mouse xenografted with human PC-3 tumor at 0.37 to 0.74 MBq, iv after 2 hrs by gamma counting analysis; type: ADME, organism-based
Lung [8] = assay: Biodistribution in lung of NSG mouse xenografted with human PC-3 tumor at 0.37 to 0.74 MBq, iv after 0.5 hrs by gamma counting analysis; type: ADME, organism-based
Tumour [9] = assay: Biodistribution in tumor of NSG mouse xenografted with human PC-3 tumor at 0.37 to 0.74 MBq, iv after 2 hrs by gamma counting analysis; type: ADME, organism-based, Neoplasm
Mus musculus [10] = assay: Biodistribution in testis of NSG mouse xenografted with human PC-3 tumor at 0.37 to 0.74 MBq, iv after 0.5 hrs by gamma counting analysis; type: ADME, organism-based
Kidney [11] = assay: Biodistribution in kidney of NSG mouse xenografted with human PC-3 tumor at 0.37 to 0.74 MBq, iv after 2 hrs by gamma counting analysis; type: ADME, organism-based
Intestine [12] = assay: Biodistribution in intestine of NSG mouse xenografted with human PC-3 tumor at 0.37 to 0.74 MBq, iv after 1 hr by gamma counting analysis; type: ADME, organism-based
Pancreas [13] = assay: Biodistribution in pancreas of NSG mouse xenografted with human PC-3 tumor at 0.37 to 0.74 MBq, iv after 1 hr by gamma counting analysis; type: ADME, organism-based
Mus musculus [14] = assay: Biodistribution in seminal gland of NSG mouse xenografted with human PC-3 tumor at 0.37 to 0.74 MBq, iv after 1 hr by gamma counting analysis; type: ADME, organism-based
Bone [15] = assay: Biodistribution in bone of NSG mouse xenografted with human PC-3 tumor at 0.37 to 0.74 MBq, iv after 2 hrs by gamma counting analysis; type: ADME, organism-based, Bone element
Muscle tissue [16] = assay: Biodistribution in muscle of NSG mouse xenografted with human PC-3 tumor at 0.37 to 0.74 MBq, iv after 1 hr by gamma counting analysis; type: ADME, organism-based
Intestine [17] = assay: Biodistribution in intestine of NSG mouse xenografted with human PC-3 tumor at 0.37 to 0.74 MBq, iv after 2 hrs by gamma counting analysis; type: ADME, organism-based
Intestine [18] = assay: Biodistribution in intestine of NSG mouse xenografted with human PC-3 tumor at 0.37 to 0.74 MBq, iv after 0.5 hrs by gamma counting analysis; type: ADME, organism-based
Muscle tissue [19] = assay: Biodistribution in muscle of NSG mouse xenografted with human PC-3 tumor at 0.37 to 0.74 MBq, iv after 0.5 hrs by gamma counting analysis; type: ADME, organism-based
Kidney [20] = assay: Biodistribution in kidney of NSG mouse xenografted with human PC-3 tumor at 0.37 to 0.74 MBq, iv after 1 hr by gamma counting analysis; type: ADME, organism-based
Spleen [21] = assay: Biodistribution in spleen of NSG mouse xenografted with human PC-3 tumor at 0.37 to 0.74 MBq, iv after 2 hrs by gamma counting analysis; type: ADME, organism-based
Lung [22] = assay: Biodistribution in lung of NSG mouse xenografted with human PC-3 tumor at 0.37 to 0.74 MBq, iv after 2 hrs by gamma counting analysis; type: ADME, organism-based
Pancreas [23] = assay: Biodistribution in pancreas of NSG mouse xenografted with human PC-3 tumor at 0.37 to 0.74 MBq, iv after 2 hrs by gamma counting analysis; type: ADME, organism-based
Liver = assay: Biodistribution in liver of NSG mouse xenografted with human PC-3 tumor at 0.37 to 0.74 MBq, iv after 2 hrs by gamma counting analysis; type: ADME, organism-based
Blood [24] = assay: Biodistribution in blood of NSG mouse xenografted with human PC-3 tumor at 0.37 to 0.74 MBq, iv after 1 hr by gamma counting analysis; type: ADME, organism-based
Bone [25] = assay: Biodistribution in bone of NSG mouse xenografted with human PC-3 tumor at 0.37 to 0.74 MBq, iv after 1 hr by gamma counting analysis in presence of BAY86-7548; type: ADME, organism-based, Bone element
[26] = Biodistribution in fat of NSG mouse xenografted with human PC-3 tumor at 0.37 to 0.74 MBq, iv after 0.5 hrs by gamma counting analysis; type: ADME, organism-based, Adipose tissue
Bone [27] = assay: Biodistribution in bone of NSG mouse xenografted with human PC-3 tumor at 0.37 to 0.74 MBq, iv after 0.5 hrs by gamma counting analysis; type: ADME, organism-based, Bone element
Mus musculus [28] = assay: Biodistribution in testis of NSG mouse xenografted with human PC-3 tumor at 0.37 to 0.74 MBq, iv after 1 hr by gamma counting analysis; type: ADME, organism-based
[29] = Biodistribution in fat of NSG mouse xenografted with human PC-3 tumor at 0.37 to 0.74 MBq, iv after 1 hr by gamma counting analysis in presence of BAY86-7548; type: ADME, organism-based, Adipose tissue
Blood [30] = assay: Biodistribution in blood of NSG mouse xenografted with human PC-3 tumor at 0.37 to 0.74 MBq, iv after 0.5 hrs by gamma counting analysis; type: ADME, organism-based

CC(C)C[C@H](NC(=O)C[C@H](O)[C@H](CC(C)C)NC(=O)[C@H](Cc1cnc[nH]1)NC(=O)CNC(=O)[C@@H](NC(=O)[C@H](C)NC(=O)[C@H](Cc1c[nH]c2ccccc12)NC(=O)[C@H](CCC(N)=O)NC(=O)[C@@H](Cc1ccccc1)NC(=O)CN1CCC(NC(=O)Cn2cc(C[N+](C)(C)C[B-](F)(F)[17F])nn2)CC1)C(C)C)C(N)=O
Drug uptake (Spleen [1]): 1.08 % ID/g
Drug uptake (Tumour [2]): 0.54 % ID/g
Drug uptake (Muscle tissue [3]): 0.03 % ID/g
Drug uptake (Mus musculus [4]): 0.29 % ID/g
Drug uptake (Heart): 0.18 % ID/g
Drug uptake (Brain): 0.03 % ID/g
Drug uptake (Muscle tissue [5]): 0.14 % ID/g
Drug uptake (Spleen [6]): 0.32 % ID/g
Drug uptake (Blood [7]): 0.32 % ID/g
Drug uptake (Lung [8]): 1.96 % ID/g
Drug uptake (Tumour [9]): 2.2 % ID/g
Drug uptake (Mus musculus [10]): 0.42 % ID/g
Drug uptake (Kidney [11]): 1.46 % ID/g
Drug uptake (Intestine [12]): 6.3 % ID/g
Drug uptake (Pancreas [13]): 4.16 % ID/g
Drug uptake (Mus musculus [14]): 0.7 % ID/g
Drug uptake (Bone [15]): 0.18 % ID/g
Drug uptake (Muscle tissue [16]): 0.07 % ID/g
Drug uptake (Intestine [17]): 8.67 % ID/g
Drug uptake (Intestine [18]): 4.28 % ID/g
Drug uptake (Muscle tissue [19]): 0.38 % ID/g
Drug uptake (Kidney [20]): 2.43 % ID/g
Drug uptake (Spleen [21]): 0.26 % ID/g
Drug uptake (Lung [22]): 0.4 % ID/g
Drug uptake (Pancreas [23]): 4.75 % ID/g
Drug uptake (Liver): 0.33 % ID/g
Drug uptake (Blood [24]): 0.57 % ID/g
Drug uptake (Bone [25]): 0.25 % ID/g
Drug uptake [26]: 0.25 % ID/g
Drug uptake (Bone [27]): 0.7 % ID/g
Drug uptake (Mus musculus [28]): 0.25 % ID/g
Drug uptake [29]: 0.12 % ID/g
Drug uptake (Blood [30]): 2.1 % ID/g
